ChEMBL document CHEMBL5230110, “FabI (enoyl acyl carrier protein reductase) - A potential broad spectrum therapeutic target and its inhibitors” (Eur J Med Chem, 2020)
≈ marks a conversion by molar mass, not a printed value.

How the values were obtained:
[1] = Inhibition of Plasmodium falciparum NF54 HDAC using extract measured after 60 mins by fluorescence assay
[2] = Inhibition of Pseudomonas fluorescens FabI assessed as inhibition
[3] = Inhibition of Pseudomonas fluorescens FabG assessed as inhibition
Escherichia coli [4] = assay: Antibacterial activity against Escherichia coli ATCC 8730 assessed as inhibition of bacterial growth; type: functional
Vibrio cholerae = assay: Antibacterial activity against Vibrio cholerae; type: functional
Staphylococcus aureus [5] = assay: Antibacterial activity against Staphylococcus aureus ATCC 11632 assessed as reduction in bacterial growth at 25 ug/ml measured after 24 hrs serial dilution method; type: functional; details: dose 25 µg/ml
Bacillus subtilis = assay: Antibacterial activity against Bacillus subtilis ATCC 60511 assessed as reduction in bacterial growth at 25 ug/ml measured after 24 hrs serial dilution method; type: functional; details: dose 25 µg/ml
Staphylococcus aureus [6] = assay: Antibacterial activity against Methicillin-resistant Staphylococcus aureus N315 assessed as reduction in bacterial growth; type: functional
[7] = target: T1, Enoyl-[acyl-carrier-protein] reductase [NADPH] FabI (Staphylococcus aureus, UniProt Q6GI75); assay: Inhibition of Staphylococcus aureus ATCC 29213 FabI in the presence of NADH using crotonyl CoA as substrate by measuring NADH consumption rate
T1 sequence (Q6GI75 whole entry): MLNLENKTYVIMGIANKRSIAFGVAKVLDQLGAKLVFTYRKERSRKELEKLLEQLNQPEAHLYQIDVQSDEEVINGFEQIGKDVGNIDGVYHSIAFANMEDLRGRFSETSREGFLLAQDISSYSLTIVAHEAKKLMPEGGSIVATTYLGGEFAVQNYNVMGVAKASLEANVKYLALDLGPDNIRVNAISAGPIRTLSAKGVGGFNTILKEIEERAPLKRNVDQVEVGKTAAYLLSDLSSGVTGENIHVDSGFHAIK

[8] = target: T2, Enoyl-[acyl-carrier-protein] reductase [NADH] FabI (Escherichia coli K-12, UniProt P0AEK4); assay: Inhibition of Escherichia coli DH5alpha FabI in the presence of NADH using crotonyl CoA as substrate by measuring NADH consumption rate
T2 sequence (P0AEK4 whole entry): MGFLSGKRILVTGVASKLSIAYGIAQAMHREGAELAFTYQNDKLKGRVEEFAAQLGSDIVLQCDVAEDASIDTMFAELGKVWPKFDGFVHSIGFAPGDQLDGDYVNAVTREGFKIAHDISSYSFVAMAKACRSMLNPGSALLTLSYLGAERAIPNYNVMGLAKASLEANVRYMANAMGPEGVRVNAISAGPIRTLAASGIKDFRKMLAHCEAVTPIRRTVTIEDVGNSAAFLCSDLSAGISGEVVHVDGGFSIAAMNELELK

Escherichia coli [9] = assay: Antibacterial activity against Escherichia coli assessed as inhibition of LPS biosynthesis; type: functional
[10] = test system: Mycobacterium tuberculosis; assay: Antimycobacterial activity against Mycobacterium tuberculosis H37Rv; type: functional
[11] = test system: Mycobacterium tuberculosis; assay: Antimycobacterial activity against Mycobacterium tuberculosis H37Rv after 14 days; type: functional; details: 336 h, time 14 day
[12] = target: T1, Enoyl-[acyl-carrier-protein] reductase [NADPH] FabI; assay: Inhibition of Staphylococcus aureus FabI in the presence of NADH using crotonyl CoA as substrate by measuring NADH consumption rate
[13] = target: T2, Enoyl-[acyl-carrier-protein] reductase [NADH] FabI; assay: Inhibition of Escherichia coli FabI in the presence of NADH using crotonyl CoA as substrate by measuring NADH consumption rate
Moraxella catarrhalis = assay: Antibacterial activity against Moraxella catarrhalis assessed as inhibition in bacterial growth measured after 24 hrs by broth microdilution method; type: functional
Staphylococcus aureus [14] = assay: Antibacterial activity against Staphylococcus aureus assessed as inhibition of bacterial growth measured after 24 hrs; type: functional
Staphylococcus aureus [15] = assay: Antibacterial activity against Methicillin-resistant Staphylococcus aureus ATCC 33592 assessed as bacterial growth inhibition measured after 24 hrs by broth dilution method; type: functional
Staphylococcus aureus [16] = assay: Antibacterial activity against quinolone-resistant Staphylococcus aureus; type: functional

Structure (SMILES): C=C1C(=O)OC[C@H]1C(O)/C=C(\C)CC(=O)C=C(C)C (some centres not stated)
- IC50 [1]: 20 µg/mL (≈ 75.7 µM)
- IC50 [2]: 20 µg/mL (≈ 75.7 µM)
- IC50 [3]: 75 µg/mL (≈ 284 µM)

Structure (SMILES): O=C(NN1C(=O)CC1c1cc2cc(Br)ccc2nc1Cl)c1ccncc1 (configuration not stated)
- MIC (Escherichia coli [4]): 0.4 µg/mL (≈ 0.927 µM)
- MIC (Vibrio cholerae): 0.4 µg/mL (≈ 0.927 µM)
- MIC (Staphylococcus aureus [5]): 12.5 µg/mL (≈ 29 µM)
- MIC (Bacillus subtilis): 12.5 µg/mL (≈ 29 µM)

Structure (SMILES): Cc1cccc(Cl)c1Cc1c(Cl)n(Cc2cccc(Cl)c2)ccc1=O
- MIC90 (Staphylococcus aureus [6]): 0.5 µg/mL (≈ 1.27 µM)
- IC50 [7]: 340 nM
- IC50 [8]: 340 nM

Structure (SMILES): CCCS(=O)(=O)N1N=Cc2cc(C)sc2B1O
- MIC (Escherichia coli [9]): 1.25 µg/mL (≈ 4.59 µM)

Structure (SMILES): COc1nc2ccc(C)cc2cc1C1CC(=O)N1NC(=O)c1ccc(-n2cccc2)cc1 (configuration not stated)
- MIC (Escherichia coli [4]): 0.4 µg/mL (≈ 0.938 µM)
- MIC (Vibrio cholerae): 0.4 µg/mL (≈ 0.938 µM)
- MIC (Staphylococcus aureus [5]): 12.5 µg/mL (≈ 29.3 µM)
- MIC (Bacillus subtilis): 12.5 µg/mL (≈ 29.3 µM)

Structure (SMILES): Cc1cccc(Cl)c1Cc1c(Cl)n(Cc2cccs2)ccc1=O
- MIC90 (Staphylococcus aureus [6]): 2 µg/mL (≈ 5.49 µM)
- IC50 [7]: 350 nM
- IC50 [8]: 400 nM

Structure (SMILES): COc1nc2ccc(Br)cc2cc1C1CC(=O)N1NC(=O)c1ccncc1 (configuration not stated)
- MIC (Escherichia coli [4]): 0.4 µg/mL (≈ 0.936 µM)
- MIC (Vibrio cholerae): 0.4 µg/mL (≈ 0.936 µM)
- MIC (Staphylococcus aureus [5]): 3.12 µg/mL (≈ 7.31 µM)
- MIC (Bacillus subtilis): 3.12 µg/mL (≈ 7.31 µM)

Structure (SMILES): CCCCCCCCCCCCCCCCc1cc(OC2OC(CO)C(O)C(O)C2O)cc(O)c1C(=O)Oc1cc(C)c(C(=O)O)c(O)c1 (configuration not stated)
- IC50 [7]: 3200 nM

Structure (SMILES): COc1nc2ccc(Br)cc2cc1/C=N/NC(=O)c1ccc(-n2cccc2)cc1
- MIC [10]: 1.6 µg/mL (≈ 3.56 µM)

Structure (SMILES): Oc1cc(Cn2cc(C3CC3)nn2)ccc1Oc1ccccc1Cl
- MIC [11]: 0.156 µg/mL (≈ 0.456 µM)

Structure (SMILES): C=C1C(=O)OC[C@H]1C(/C=C(\C)CC(=O)C=C(C)C)OC(C)=O (some centres not stated)
- IC50 [2]: 25 µg/mL (≈ 81.6 µM)
- IC50 [3]: 50 µg/mL (≈ 163 µM)

Structure (SMILES): COc1nc2ccc(C)cc2cc1/C=N/NC(=O)c1ccc(-n2cccc2)cc1
- MIC [10]: 1.6 µg/mL (≈ 4.16 µM)

Structure (SMILES): CC(C)CCCC/C=C\CCCCCCCC(=O)O
- IC50 [12]: 16300 nM

Structure (SMILES): Cc1ccc(Cn2cnc(-c3ccsc3)c2)cc1
- IC50 [13]: 3920 nM
- IC50 [12]: 360 nM

Structure (SMILES): COc1ccc(-c2cn(Cc3ccc(C)cc3)cn2)cc1
- IC50 [13]: 6440 nM
- IC50 [12]: 250 nM

Structure (SMILES): O=C(c1ccc(O)cc1)N1CCc2c(n(Cc3ccc(O)cc3)c3ccccc23)C1
- MIC (Moraxella catarrhalis): 8 µg/mL (≈ 20.1 µM)
- MIC (Staphylococcus aureus [14]): 0.5 µg/mL (≈ 1.25 µM)

Structure (SMILES): Cc1ccc(C(=O)N2CCc3c(n(Cc4ccc(O)cc4)c4ccccc34)C2)c(O)c1
- MIC (Moraxella catarrhalis): 4 µg/mL (≈ 9.7 µM)
- MIC (Staphylococcus aureus [14]): 1 µg/mL (≈ 2.42 µM)

Structure (SMILES): CC1CC(=O)c2c(cc3c(-c4c(O)cc(O)c5c(O)c6c(cc45)OC(C)CC6=O)c(O)cc(O)c3c2O)O1 (configuration not stated) [CEPHALOCHROMIN]
- IC50 [7]: 1900 nM
- IC50 [8]: 1800 nM

Structure (SMILES): Cc1c(N)cccc1Cn1ccc(OCCc2cccs2)cc1=O [CG-400549]
- MIC90 (Staphylococcus aureus [6]): 0.25 µg/mL (≈ 0.734 µM)
- MIC (Staphylococcus aureus [15]): 0.25 µg/mL (≈ 0.734 µM)

Structure (SMILES): CN1C(=O)[C@@H](c2cc(Cl)c(O)c(Cl)c2)NC(=O)[C@@H]2NC(=O)[C@@H](c3cc(Cl)c(O)c(Cl)c3)NC(=O)[C@H](NC(=O)C(=O)c3cc(Cl)c(O)c(Cl)c3)Cc3c[nH]c4c(cccc34)-c3cc2cc(c3O)Oc2ccc(cc2)C[C@H]1C(=O)N[C@@H](C(=O)O)c1ccc(O)cc1 [CHLOROPEPTIN]
- MIC (Staphylococcus aureus [16]): 4 µg/mL (≈ 3.01 µM)
- IC50 [7]: 300 nM

Structure (SMILES): CN1C(=O)[C@@H](c2cc(Cl)c(O)c(Cl)c2)NC(=O)[C@@H]2NC(=O)[C@@H](c3cc(Cl)c(O)c(Cl)c3)NC(=O)[C@H](NC(=O)C(=O)c3cc(Cl)c(O)c(Cl)c3)CC3C(=O)Nc4cc(ccc43)-c3cc2cc(c3O)Oc2ccc(cc2)C[C@H]1C(=O)N[C@@H](C(=O)O)c1ccc(O)cc1 (some centres not stated) [COMPLESTATINS A]
- MIC (Staphylococcus aureus [16]): 4 µg/mL (≈ 2.97 µM)
- IC50 [7]: 600 nM

Structure (SMILES): CC(C)=CCc1c(O)cc(-c2cc3ccc(O)cc3o2)cc1O [MORACIN C]
- MIC (Staphylococcus aureus [14]): 32 µg/mL (≈ 103 µM)

Structure (SMILES): CC(=O)c1cc2c(=O)c3c(C(=O)O)c(O)c(O)cc3oc2c(C(C)=O)c1-c1coc2cc(O)c(O)c(C(=O)O)c2c1=O [VINAXANTHONE]
- IC50 [7]: 900 nM
